According to US7612065B2, “Inhibitors of c-JUN N-terminal kinases (JNK)” (priority 2007, dated 2009):

Target: T1, JNK3 (Homo sapiens, UniProt P53779)
T1 construct: One such construct encodes amino acid residues Ser40-Glu402 of JNK3α1 and is preceded by Met and Gly residues; Met-Gly (initiation methionine plus glycine added for the NcoI site); made in house; host or cells: E. coli BL21 (DE3)
Assay: JNK inhibition assay: spectrophotometric coupled-enzyme assay with activated JNK3
Assay type: biochemical
Conditions: activated JNK3 10 nM, 10 μM ATP, 200 μM EGF receptor peptide, 30° C., competitive inhibition model
Description: A BLAST search of the EST database using the published JNK3α1 cDNA as a query identified an EST clone (#632588) that contained the entire coding sequence for human JNK3α1. Polymerase chain reactions (PCR) using pfu polymerase (Strategene) were used to introduce restriction sites into the cDNA for cloning into the pET-15B expression vector at the NcoI and BamHI sites. The protein was expressed in E. coli. […] This truncation corresponds to Ser 2 of JNK1 and JNK2 proteins, and is preceded by a methionine (initiation) and a glycine residue. The glycine residue was added in order to introduce an NcoI site for cloning into the expression vector. In addition, systematic C-terminal truncations were performed by PCR to identify a construct that give rise to diffraction-quality crystals.
5 mg of JNK3 was diluted to 0.5 mg/ml in 50 mM HEPES buffer, pH 7.5, containing 100 mM NaCl, 5 mM DTT, 20 mM MgCl2 and 1 mM ATP. GST-MKK7(DD) was added at a molar ratio of 1:2.5 GST-MKK7:JNK3. After incubation for 30 minutes at 25° C., the reaction mixture was concentrated 5-fold by ultrafiltration in a Centriprep-30 (Amicon, Beverly, Mass.), diluted to 10 ml and an additional 1 mM ATP added. This procedure was repeated three times to remove ADP and replenish ATP. The final addition of ATP was 5 mM and the mixture incubated overnight at 4° C.
The activated JNK3/GST-MKK7(DD) reaction mixture was exchanged into 50 mM HEPES buffer, pH 7.5, containing 5 mM DTT and 5% glycerol (w/v) by dialysis or ultrafiltration. The reaction mixture was adjusted to 1.1 M potassium phosphate, pH 7.5, and purified by hydrophobic interaction chromatography (at 25° C.) using a Rainin Hydropore column. […] Activated JNK3 (i.e. doubly phosphorylated JNK3) was stored at −70° C. at 0.25-1 mg/ml.
Compounds were assayed for the inhibition of JNK3 by a spectrophotometric coupled-enzyme assay. In this assay, a fixed concentration of activated JNK3 (10 nM) was incubated with various concentrations of a potential inhibitor dissolved in DMSO for 10 minutes at 30° C. in a buffer containing 0.1 M HEPES buffer, pH 7.5, containing 10 mM MgCl2, 2.5 mM phosphoenolpyruvate, 200 μM NADH, 150 μg/mL pyruvate kinase, 50 μg/mL lactate dehydrogenase, and 200 μM EGF receptor peptide. […] The reaction was initiated by the addition of 10 μM ATP and the assay plate is inserted into the spectrophotometer's assay plate compartment that was maintained at 30° C. The decrease of absorbance at 340 nm was monitored as a function of time. The rate data as a function of inhibitor concentration was fitted to competitive inhibition kinetic model to determine the Ki.

T1 sequence (P53779 40-402): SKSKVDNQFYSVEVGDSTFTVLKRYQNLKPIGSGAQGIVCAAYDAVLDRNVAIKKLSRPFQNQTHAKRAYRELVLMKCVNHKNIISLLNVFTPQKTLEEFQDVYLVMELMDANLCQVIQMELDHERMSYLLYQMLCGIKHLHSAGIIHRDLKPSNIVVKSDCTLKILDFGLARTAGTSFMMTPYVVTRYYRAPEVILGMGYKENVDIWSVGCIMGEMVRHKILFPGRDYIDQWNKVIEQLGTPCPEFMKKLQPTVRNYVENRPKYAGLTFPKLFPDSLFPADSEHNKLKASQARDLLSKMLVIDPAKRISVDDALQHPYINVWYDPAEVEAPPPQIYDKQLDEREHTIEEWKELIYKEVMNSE

Row | Ki [nM] | SMILES
1 | < 1000 | O=C1/C(=N\O)c2ccc(-c3ccccc3)cc2N1Cc1cc(F)cc2c1OCOC2 [Compound 153]
2 | < 1000 | O=C(O)c1ccc(-c2ccc3c(c2)N(Cc2cc(F)cc4c2OCOC4)C(=O)/C3=N\O)cc1 [Compound 154]
3 | < 1000 | COc1cc(CN2C(=O)/C(=N\O)c3ccc(OC)cc32)cc(OC)c1 [Compound 155]
4 | < 1000 | COc1ccc2c(c1)N(Cc1cc(F)cc3c1OCOC3)C(=O)/C2=N\O [Compound 156]
5 | ≥ 1000 | O=C1/C(=N\O)c2cc(-c3c(F)cccc3F)ccc2N1Cc1ccccc1 [Compound 157]
6 | ≥ 1000 | O=C(CN1C(=O)/C(=N\O)c2cc(Br)ccc21)OCc1ccccc1 [Compound 158]
7 | ≥ 1000 | CC(C)CN1C(=O)/C(=N\O)c2cc(Br)ccc21 [Compound 159]
8 | ≥ 1000 | C=CCCCN1C(=O)/C(=N\O)c2cc(Br)ccc21 [Compound 160]
9 | ≥ 1000 | O=C1c2ccccc2C(=O)N1CCCN1C(=O)/C(=N\O)c2ccc(-c3ccccc3)cc21 [Compound 161]
10 | ≥ 1000 | O=C1/C(=N\O)c2ccc(-c3ccccc3)cc2N1Cc1ccccc1-c1ccccc1 [Compound 162]
11 | ≥ 1000 | O=C1/C(=N\O)c2ccc(-c3ccccc3)cc2N1CC1OCCO1 [Compound 163]
12 | < 1000 | COc1cc(CN2C(=O)/C(=N\O)c3ccc(C(F)(F)F)cc32)cc(OC)c1 [Compound 164]
13 | < 1000 | O=C1/C(=N\O)c2ccc(C(F)(F)F)cc2N1Cc1cc(F)cc2c1OCOC2 [Compound 165]
14 | < 1000 | COc1cc(CN2C(=O)/C(=N\O)c3c(C)cc(C)cc32)cc(OC)c1 [Compound 166]
15 | < 1000 | Cc1cc(C)c2c(c1)N(Cc1cc(F)cc3c1OCOC3)C(=O)/C2=N\O [Compound 167]
16 | ≥ 1000 | COc1cccc(-c2ccc3c(c2)N(Cc2cc(=O)oc4cc(OC)ccc24)C(=O)/C3=N\O)c1 [Compound 175]
17 | ≥ 1000 | COC(=O)c1cccc(CN2C(=O)/C(=N/O)c3ccc(-c4cccc(OC)c4)cc32)c1 [Compound 176]

Row | Ki [nM] | SMILES
18 | ≥ 1000 | O=C1/C(=N/O)c2ccc(-c3ccsc3)cc2N1CCOc1ccccc1 [Compound 183]
19 | ≥ 1000 | COc1ccc2c(CN3C(=O)/C(=N/O)c4ccc(-c5ccsc5)cc43)cc(=O)oc2c1 [Compound 184]
20 | ≥ 1000 | COC(=O)c1cccc(CN2C(=O)/C(=N/O)c3ccc(-c4ccsc4)cc32)c1 [Compound 185]
21 | ≥ 1000 | COC(=O)CCCN1C(=O)/C(=N/O)c2ccc(-c3ccsc3)cc21 [Compound 186]
22 | ≥ 1000 | O=C1c2ccccc2C(=O)N1CCCN1C(=O)/C(=N/O)c2ccc(CBr)cc21 [Compound 187]
23 | ≥ 1000 | COc1ccc2c(CN3C(=O)/C(=N/O)c4ccc(CBr)cc43)cc(=O)oc2c1 [Compound 188]
24 | < 1000 | COC(=O)c1cccc(CN2C(=O)/C(=N/O)c3ccc(CBr)cc32)c1 [Compound 189]
25 | ≥ 1000 | COC(=O)CCCN1C(=O)/C(=N/O)c2ccc(CBr)cc21 [Compound 190]
26 | < 1000 | O=C1/C(=N\O)c2c(Cl)cc(Cl)cc2N1Cc1cc(F)cc2c1OCOC2 [Compound 196]
27 | ≥ 1000 | COc1cc(CN2C(=O)/C(=N\O)c3ccc([N+](=O)[O-])cc32)cc(OC)c1 [Compound 198]
28 | < 1000 | COc1cc(CN2C(=O)/C(=N\O)c3c(Br)cccc32)cc(OC)c1 [Compound 199]
29 | ≥ 1000 | COc1cc(CN2C(=O)/C(=N\O)c3c(-c4ccccc4)cccc32)cc(OC)c1 [Compound 200]
30 | < 1000 | O=C1/C(=N\O)c2c(Br)cccc2N1Cc1cc(F)cc2c1OCOC2 [Compound 201]
31 | ≥ 1000 | O=C1/C(=N\O)c2c(-c3ccccc3)cccc2N1Cc1cc(F)cc2c1OCOC2 [Compound 202]
32 | ≥ 1000 | O=C1/C(=N\O)c2c(-c3cccc(F)c3)cccc2N1Cc1cc(F)cc2c1OCOC2 [Compound 203]
33 | ≥ 1000 | O=C1/C(=N\O)c2c(-c3ccc(F)cc3)cccc2N1Cc1cc(F)cc2c1OCOC2 [Compound 204]
34 | ≥ 1000 | O=C1/C(=N\O)c2c(-c3ccsc3)cccc2N1Cc1cc(F)cc2c1OCOC2 [Compound 205]
